Patent US9403850B2, “Beta-lactamase inhibitors” (priority 2013, dated 2016)
Read-outs that look alike come from different tables or passages of the source.

Tests used:
[1] = system: P. aeruginosa Ps296 expressing VIM-2; assay: Broth microdilution MIC assay, partner meropenem; format: cell-based; details: Pseudomonas aeruginosa, read-out: MIC of Exemplary Compounds in presence of fixed β-lactams, Fixed Mero, P. aerug. Ps296 VIM-2
[2] = system: E. cloacae 144200 expressing Class C P99 AmpC; assay: Broth microdilution MIC assay, partner ceftazidime;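 note: ceftazidime held fixed at 4 µg/mL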; format: cell-based; details: Enterobacter cloacae, read-out: MIC of Exemplary Compounds in presence of fixed β-lactams, Fixed CAZ, E. cl. 144200 p99 AmpC
[3] = system: E. coli ESBL4 expressing CTX-M-15; assay: Broth microdilution MIC assay, partner ceftazidime;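 note: ceftazidime held fixed at 4 µg/mL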; format: cell-based; details: Escherichia coli, read-out: MIC of Exemplary Compounds in presence of fixed β-lactams, Fixed CAZ, E. coli ESBL4 CTX-M-15
[4] = system: K. pneumoniae 156319 expressing KPC-3; assay: Broth microdilution MIC assay, partner meropenem; format: cell-based; details: Klebsiella pneumoniae, read-out: MIC of Exemplary Compounds in presence of fixed β-lactams, Fixed Mero, K.P. 156319 KPC-3
[5] = target: T1, VIM-2 (Escherichia coli, UniProt Q5U7L7); assay: β-Lactamase enzyme inhibition assay, VIM-2 (nitrocefin substrate); format: biochemical
T1 construct: made in house; host or cells: E. coli BL21(DE3)
Experimental: For Vim-2 metallo β-lactamase, the procedure was identical with the following exceptions, first the protein was not pH adjusted to pH 5 with 50 mM sodium acetate, second, the chromatography step was changed to a 5 ml Q sepharose anion exchange column pre-equilibrated with 50 mM Hepes pH 7.5, and elution of the protein was achieved by a linear gradient of NaCl (0-600 mM). Finally, the VIM-2 purification required a second run (3rd step) on the Q sepharose anion exchange column to achieve acceptable purity (>90%).
An equal volume of diluted enzyme stock was added, and the plates were incubated at 37° C. for 15 min. Nitrocefin was used as substrate for p99 AmpC, VIM-2 and OXA-1 and dispensed into each well at a final concentration of 100 μM. Absorbance at 486 nm was immediately monitored for 10 min using a Biotek Powerwave XS2 microplate spectrophotometer using the GEN5 softweare package (Biotek Instruments, Winooski Vt.). In an analogous fashion, imipenem was used as substrate for Kpc-2 and Cefotaxime was used for SHV-5, while changes in absorbance upon hydrolysis of the β-lactam ring were monitored at 300 nm and 260 nm respectively in UV-transparent 96-well microtiter assay plates. Maximum rates of hydrolysis were compared to those in control wells (without inhibitors), and percentages of enzyme inhibition were calculated for each concentration of inhibitor. The concentration of inhibitor needed to reduce the initial rate of hydrolysis of substrate by 50% (IC50) was calculated as the residual activity of β-lactamase at 486 nm using GraFit version 7 kinetics software package (Erithacus Software, Surrey, UK).
Using the methodology described above, examples of the current invention were evaluated for their ability to inhibit β-lactamase enzymes from all four Ambler classifications (A through D). […] NT=Not tested.

[6] = system: K. pneumoniae A-1797 expressing KPC-2 and VIM-4; assay: Broth microdilution MIC assay, partner meropenem; format: cell-based; details: Klebsiella pneumoniae, read-out: MIC of Exemplary Compounds in presence of fixed β-lactams, Fixed Mero, K.P. A-1797 KPC-2 VIM-4
[7] = system: S. aureus MSSA-7 producing penicillinase PC-1; assay: Broth microdilution MIC assay, partner piperacillin; format: cell-based; details: Staphylococcus aureus, read-out: MIC of Exemplary Compounds in presence of fixed β-lactams, Fixed Pip, S. aureus MSSA-7 PC-1
[8] = nitrocefin substrate 100 μM, 15 min preincubation at 37° C., read-out: IC50, Class B VIM-2

Row | SMILES | MIC [1] | MIC [2] | MIC [3] | MIC [4] | IC50 [5, 8] | MIC [6] | MIC ([7]; fixed piperacillin 4 μg/mL) | MIC [7] | IC50 [5]
1 | O=C(O)c1cccc2c1OB(O)[C@@H](NC(=O)C1(c3ccccc3)CC1)C2 [Example 1, (R)-2-hydroxy-3-(1-phenylcyclopropanecarboxamido)-3,4-dihydro-2H-benzo[e][1,2]oxaborinine-8-carboxylic acid] | 8 to 32 µg/mL | < 4 µg/mL | < 4 µg/mL | 8 to 32 µg/mL | 100 to 1000 nM |  |  |  | 
2 | O=C(O)c1cccc2c1OB(O)[C@@H](NC(=O)C(F)(F)c1ccccc1)C2 [Example 2, (R)-3-(2,2-difluoro-2-phenylacetamido)-2-hydroxy-3,4-dihydro-2H-benzo[e][1,2]oxaborinine-8-carboxylic acid] | 8 to 32 µg/mL | < 4 µg/mL | < 4 µg/mL | 8 to 32 µg/mL | 1000 to 10000 nM | > 32 µg/mL | < 4 µg/mL |  | 
3 | O=C(O)c1cccc2c1OB(O)[C@@H](NC(=O)C1(c3ccccc3)CCNCC1)C2 [Example 3, (R)-2-hydroxy-3-(4-phenylpiperidine-4-carboxamido)-3,4-dihydro-2H-benzo[e][1,2]oxaborinine-8-carboxylic acid] | 8 to 32 µg/mL | < 4 µg/mL | < 4 µg/mL | < 4 µg/mL |  | > 32 µg/mL |  | > 32 µg/mL | 1000 to 10000 nM
4 | O=C(N[C@H]1Cc2cccc(C(=O)O)c2OB1O)c1csc2c1CCNC2 [Example 4, (R)-2-hydroxy-3-(4,5,6,7-tetrahydrothieno[2,3-c]pyridine-3-carboxamido)-3,4-dihydro-2H-benzo[e][1,2]oxaborinine-8-carboxylic acid] | > 32 µg/mL | < 4 µg/mL | < 4 µg/mL | < 4 µg/mL | 100 to 1000 nM | < 4 µg/mL | < 4 µg/mL |  | 
5 | O=C(N[C@H]1Cc2cccc(C(=O)O)c2OB1O)c1ccc2c(c1)CCNC2 [Example 5, (R)-3-(2-borono-2-(1,2,3,4-tetrahydroisoquinoline-6-carboxamido)ethyl)-2-hydroxybenzoic acid] | > 32 µg/mL | < 4 µg/mL | < 4 µg/mL | < 4 µg/mL | 100 to 1000 nM | < 4 µg/mL | < 4 µg/mL |  | 
6 | CN1CCc2c(C(=O)N[C@H]3Cc4cccc(C(=O)O)c4OB3O)csc2C1 [Example 6, (R)-2-hydroxy-3-(6-methyl-4,5,6,7-tetrahydrothieno[2,3-c]pyridine-3-carboxamido)-3,4-dihydro-2H-benzo[e][1,2]oxaborinine-8-carboxylic acid] | > 32 µg/mL | < 4 µg/mL | < 4 µg/mL | < 4 µg/mL | 1000 to 10000 nM | 8 to 32 µg/mL | < 4 µg/mL |  | 
7 | CN1CCc2cc(C(=O)N[C@H]3Cc4cccc(C(=O)O)c4OB3O)ccc2C1 [Example 7, (R)-2-hydroxy-3-(2-methyl-1,2,3,4-tetrahydroisoquinoline-6-carboxamido)-3,4-dihydro-2H-benzo[e][1,2]oxaborinine-8-carboxylic acid] | > 32 µg/mL | < 4 µg/mL | < 4 µg/mL | 8 to 32 µg/mL | 100 to 1000 nM | < 4 µg/mL | < 4 µg/mL |  | 
8 | O=C(O)c1cccc2c1OB(O)[C@@H](NC(=O)c1c[nH]c3ncccc13)C2 [Example 8, (R)-2-hydroxy-3-(1H-pyrrolo[2,3-b]pyridine-3-carboxamido)-3,4-dihydro-2H-benzo[e][1,2]oxaborinine-8-carboxylic acid] | < 4 µg/mL | < 4 µg/mL | < 4 µg/mL | > 32 µg/mL | 1000 to 10000 nM | > 32 µg/mL | < 4 µg/mL |  | 
9 | O=C(N[C@H]1Cc2cccc(C(=O)O)c2OB1O)c1ccc2c(c1)CNC2 [Example 9, (R)-2-hydroxy-3-(isoindoline-5-carboxamido)-3,4-dihydro-2H-benzo[e][1,2]oxaborinine-8-carboxylic acid] | < 4 µg/mL | < 4 µg/mL | < 4 µg/mL | < 4 µg/mL | < 100 nM | < 4 µg/mL | < 4 µg/mL |  | 
10 | CN1Cc2ccc(C(=O)N[C@H]3Cc4cccc(C(=O)O)c4OB3O)cc2C1 [Example 10, (R)-2-hydroxy-3-(2-methylisoindoline-5-carboxamido)-3,4-dihydro-2H-benzo[e][1,2]oxaborinine-8-carboxylic acid] | 8 to 32 µg/mL | < 4 µg/mL | < 4 µg/mL | < 4 µg/mL | < 100 nM | < 4 µg/mL | < 4 µg/mL |  | 
11 | NCCN1Cc2ccc(C(=O)N[C@H]3Cc4cccc(C(=O)O)c4OB3O)cc2C1 [Example 11, (R)-3-(2-(2-aminoethyl)isoindoline-5-carboxamido)-2-hydroxy-3,4-dihydro-2H-benzo[e][1,2]oxaborinine-8-carboxylic acid] | > 32 µg/mL | < 4 µg/mL | < 4 µg/mL | < 4 µg/mL | 100 to 1000 nM | < 4 µg/mL | < 4 µg/mL |  | 
12 | O=C(N[C@H]1Cc2cccc(C(=O)O)c2OB1O)c1ccc2c(c1)CN(Cc1cccnc1)C2 [Example 12, (R)-2-hydroxy-3-(2-(pyridin-3-ylmethyl)isoindoline-5-carboxamido)-3,4-dihydro-2H-benzo[e][1,2]oxaborinine-8-carboxylic acid] | > 32 µg/mL | < 4 µg/mL | 8 to 32 µg/mL | 8 to 32 µg/mL | 100 to 1000 nM | 8 to 32 µg/mL | < 4 µg/mL |  | 
13 | O=C(Cc1cnc2c(c1)CCCN2)N[C@H]1Cc2cccc(C(=O)O)c2OB1O [Example 13, (R)-2-hydroxy-3-(2-(5,6,7,8-tetrahydro-1,8-naphthyridin-3-yl)acetamido)-3,4-dihydro-2H-benzo[e][1,2]oxaborinine-8-carboxylic acid] | 8 to 32 µg/mL | < 4 µg/mL | < 4 µg/mL | < 4 µg/mL | 1000 to 10000 nM | 8 to 32 µg/mL | < 4 µg/mL |  | 
14 | NCc1ccc(C(=O)N[C@H]2Cc3cccc(C(=O)O)c3OB2O)cc1CN [Example 14, (R)-3-(3,4-bis(aminomethyl)benzamido)-2-hydroxy-3,4-dihydro-2H-benzo[e][1,2]oxaborinine-8-carboxylic acid] | < 4 µg/mL | < 4 µg/mL | < 4 µg/mL | < 4 µg/mL | < 100 nM | < 4 µg/mL | < 4 µg/mL |  | 
15 | NC1=Nc2cc(C(=O)N[C@H]3Cc4cccc(C(=O)O)c4OB3O)ccc2CN1 [Example 15, (R)-3-(2-amino-3,4-dihydroquinazoline-7-carboxamido)-2-hydroxy-3,4-dihydro-2H-benzo[e][1,2]oxaborinine-8-carboxylic acid] | < 4 µg/mL | < 4 µg/mL | < 4 µg/mL | 8 to 32 µg/mL | 1000 to 10000 nM | 8 to 32 µg/mL | < 4 µg/mL |  | 
16 | N=C(N)N1Cc2ccc(C(=O)N[C@H]3Cc4cccc(C(=O)O)c4OB3O)cc2C1 [Example 16, (R)-3-(2-carbamimidoylisoindoline-5-carboxamido)-2-hydroxy-3,4-dihydro-2H-benzo[e][1,2]oxaborinine-8-carboxylic acid] | < 4 µg/mL | < 4 µg/mL | < 4 µg/mL | < 4 µg/mL | < 100 nM | < 4 µg/mL | < 4 µg/mL |  | 
17 | NC1=NCc2ccc(C(=O)N[C@H]3Cc4cccc(C(=O)O)c4OB3O)cc2CN1 [Example 17, (R)-3-(3-amino-4,5-dihydro-1H-benzo[e][1,3]diazepine-7-carboxamido)-2-hydroxy-3,4-dihydro-2H-benzo[e][1,2]oxaborinine-8-carboxylic acid] | 8 to 32 µg/mL | < 4 µg/mL | < 4 µg/mL | < 4 µg/mL | < 100 nM | < 4 µg/mL | < 4 µg/mL |  | 
